In patent publication US10934275B2, “IRE1 small molecule inhibitors” (Cornell University, priority 2016, dated 2021):
Where a name gives a salt, the structure may show the parent alone.

Key:
[1] = target: T1, IRE1α (Homo sapiens, UniProt O75460); assay: In vitro FRET assay (XBP1 RNA probe cleavage by IRE1α); format: biochemical; set-up: purchased SignalChem; conditions: SignalChem IRE1α protein 2 nM
Procedure: In vitro FRET assay was performed to evaluate the ability of select compounds to inhibit IRE1, the results of which are summarized in Table 5. To perform the in vitro FRET assay, 1× complete assay buffer (CAB; […], 50 mM sodium citrate pH 7.15, 1 mM magnesium acetate, 0.02% tween 20) was used to dilute SignalChem IRE1α protein to a final concentration of 2 nM. Selected compounds were serially diluted with DMSO in a non-binding black 384-well plate for a total of 15 ul in each well. 2 ul of the serially diluted compound or DMSO control were then added to new wells containing 98 ul of 1×CAB, for a total volume of 100 ul, 10 ul of which were then transferred to wells of a new plate. 5 ul of the diluted IRE1α was then added to each well. 5 ul of a […] XBP1 RNA probe was then added to each well. Fluorescence was then read over 30 minutes in kinetic mode (485/515 nm).
Two RNA probes were used, XBP1 wildtype (SEQ ID NO: 2) which is able to be spliced by active IRE1α or XBP1 mutant (SEQ ID NO: 3) which is unable to be spliced. Each probe contained a 5′ 6-FAM modification and a 3′ IOWA Black FQ modification.
A second FRET assay was performed to assess ATP-mediated inhibition. In this case, compounds and IRE1α were prepared and combined as discussed above, with the addition of ATP up to 1 mM final concentration. This mixture was incubated at room temperature for 60 minutes and then 5 ul of 400 nM XBP1 wildtype or mutant RNA probe was added. Plates were then read over 30 minutes in kinetic mode (485/515 nm).
Target sequence in this assay (O75460 468-977 limits assumed): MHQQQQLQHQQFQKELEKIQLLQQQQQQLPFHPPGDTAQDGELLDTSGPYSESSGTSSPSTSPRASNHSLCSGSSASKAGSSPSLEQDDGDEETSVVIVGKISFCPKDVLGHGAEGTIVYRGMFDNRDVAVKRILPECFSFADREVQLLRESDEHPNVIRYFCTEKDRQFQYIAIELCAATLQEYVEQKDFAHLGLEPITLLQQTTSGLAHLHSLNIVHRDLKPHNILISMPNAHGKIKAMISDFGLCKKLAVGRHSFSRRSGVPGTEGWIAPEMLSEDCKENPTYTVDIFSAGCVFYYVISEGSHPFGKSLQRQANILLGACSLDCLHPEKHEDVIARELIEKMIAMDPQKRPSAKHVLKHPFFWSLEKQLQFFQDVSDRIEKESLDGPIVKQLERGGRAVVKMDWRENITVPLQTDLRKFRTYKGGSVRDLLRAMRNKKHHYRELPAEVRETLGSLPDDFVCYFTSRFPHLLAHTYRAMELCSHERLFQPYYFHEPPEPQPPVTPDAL

[2] = target: T1, IRE1α; assay: IRE1α Endoribonuclease Nanoluciferase Assay (XBP1 luciferase reporter, 293T cells); format: cell-based; set-up: endogenous in cells; host or cells: 293T cells; conditions: 293T cells transfected with XBP1 luciferase reporter plasmid, stressors +/- inhibitors
Procedure: Compounds disclosed herein were assessed for disruption of IRE-1 signaling using a IRE1α Endoribonuclease Nanoluciferase Assay. Briefly, 2.5×10^6 293T cells were seeded in a 10 cm^2 tissue culture plate. About 24 hours later, the cells were transfected with Effectene. In a 15 mL Tube, the following was added: 2 μg XBP1 luciferase reporter plasmid (PGK-Luc2-P2A-XBP1u-Nanoluciferase-PEST); 300 μl EC buffer; and 16 μl Enhancer, followed by incubation at room temp for 5 minutes. Next, 60 μl Effectene (Qiagen 301427) was added, followed by incubation at room temperature for 10 minutes. 2.6 mL cDMEM media was added. Old media was aspirated from the cells, followed by addition of 7 mL fresh media. Full transfection mixture was added dropwise to cells. Cells were incubated for 6 hours, followed by tripsinization, centrifugation and resuspension in 11 mL media. 100 uL of cells were plated per a well in a 96 well plate. A day later, stressors of choice +/− inhibitors were added. To harvest, media was aspirated from cells completely, then 50 uL 1× passive lysis buffer (Promega: E1941) was added per well and put on shaker (300 rpm) for 30 minutes at room temperature. Cells were centrifuged, and 15 uL sample per well was added to a new, opaque white 384 well plate (Corning 3570). 15 uL OneGlo (nanoluciferase kit, Promega N1630) was added. Plates were spun down, placed on shaker (300 rpm) for 10 minutes. Plates were read on luminometer, 1000 ms integration time per well. 15 uL Stop and Glo (nanoluciferase kit) was added. Plates were spun down, placed on shaker (300 rpm) for 10 minutes. Plates were read on luminometer, 1000 ms second integration time per well. Recordings are provided below in Table 6.
Target sequence in this assay (O75460 19-977): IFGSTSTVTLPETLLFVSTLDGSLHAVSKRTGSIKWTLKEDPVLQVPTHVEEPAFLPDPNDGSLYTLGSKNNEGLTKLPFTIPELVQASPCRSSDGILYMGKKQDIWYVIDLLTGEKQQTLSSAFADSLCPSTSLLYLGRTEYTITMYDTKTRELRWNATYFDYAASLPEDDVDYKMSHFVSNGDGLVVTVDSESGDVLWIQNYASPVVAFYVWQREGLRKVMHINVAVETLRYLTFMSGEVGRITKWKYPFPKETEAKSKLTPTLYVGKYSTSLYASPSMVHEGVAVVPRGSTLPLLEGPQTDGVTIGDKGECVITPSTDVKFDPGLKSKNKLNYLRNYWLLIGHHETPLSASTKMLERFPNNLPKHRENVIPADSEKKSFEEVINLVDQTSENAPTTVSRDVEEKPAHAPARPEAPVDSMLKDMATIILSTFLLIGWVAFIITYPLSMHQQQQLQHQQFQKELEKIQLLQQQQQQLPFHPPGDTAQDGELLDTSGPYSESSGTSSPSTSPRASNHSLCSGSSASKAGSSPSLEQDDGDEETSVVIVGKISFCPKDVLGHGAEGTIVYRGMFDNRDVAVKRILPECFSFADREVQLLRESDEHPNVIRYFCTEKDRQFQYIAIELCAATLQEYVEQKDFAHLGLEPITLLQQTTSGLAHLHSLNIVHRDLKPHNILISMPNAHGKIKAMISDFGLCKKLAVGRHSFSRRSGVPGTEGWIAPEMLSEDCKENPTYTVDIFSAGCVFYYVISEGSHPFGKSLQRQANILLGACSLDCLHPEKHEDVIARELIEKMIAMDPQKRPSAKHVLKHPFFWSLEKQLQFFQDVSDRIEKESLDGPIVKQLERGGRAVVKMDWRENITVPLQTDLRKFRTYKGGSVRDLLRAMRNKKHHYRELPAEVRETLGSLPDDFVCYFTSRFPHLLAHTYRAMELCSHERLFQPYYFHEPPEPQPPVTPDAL

| EC50 [1] | EC50 [2] | SMILES |
| --- | --- | --- |
| > 0.1 µM |  | CN1CCN(Cc2ccc(NC(=O)Nc3cc(-c4ccc5cc(NC6CCCCC6)ncc5c4)n(C)n3)cc2C(F)(F)F)CC1 [4; TFA] |
| > 0.1 µM | > 0.1 µM | CN1CCN(Cc2ccc(NC(=O)Nc3cc(-c4ccc5nc(NC6CCCCC6)ncc5c4)n(C)n3)cc2C(F)(F)F)CC1 [Compound 5, 1-(5-(2-(cyclohexylamino)quinazolin-6-yl)-1-methyl-1H-pyrazol-3-yl)-3-(4-((4-methylpiperazin-1-yl)methyl)-3-(trifluoromethyl)phenyl)urea] |
| 0.005 to 0.05 µM | > 0.1 µM | Cc1cc(-c2cc(NC(=O)Nc3ccc(CN4CCN(C)CC4)c(C(F)(F)F)c3)nn2C)cc2cnc(N)nc12 [Compound 12, 1-(5-(2-amino-8-methylquinazolin-6-yl)-1-methyl-1H-pyrazol-3-yl)-3-(4-((4-methylpiperazin-1-yl)methyl)-3-(trifluoromethyl)phenyl)urea] |
| ≤ 0.005 µM | > 0.1 µM | CN1CCN(Cc2ccc(NC(=O)Nc3cc(-c4ccc5nc(NC6CCNCC6)ncc5c4)n(C)n3)cc2C(F)(F)F)CC1 [2; TFA] |
| ≤ 0.005 µM | ≤ 0.005 µM | CCc1cc(-c2cc(NC(=O)Nc3ccc(CN4CCN(C)CC4)c(C(F)(F)F)c3)nn2C)cc2cnc(N[C@H]3CC[C@H](N)CC3)nc12 [Compound 31, 1-(5-(2-(((1r,4r)-4-aminocyclohexyl)amino)-8-ethylquinazolin-6-yl)-1-methyl-1H-pyrazol-3-yl)-3-(4-((4-methylpiperazin-1-yl)methyl)-3-(trifluoromethyl)phenyl)urea] |
